Molecular target: T1, ctPrp16 (302-920) (Thermochaetoides thermophila, UniProt G0S0F9)
T1 construct: gene CTHT_0009880; residues 302-920 (RecA1, RecA2, WH, HB, OB-fold); N- and C-terminally truncated; codon-optimized gene, E. coli Rosetta2 (DE3), pGEX-6P-3, GST tag cleaved by PreScission; one molecule per asymmetric unit
T1 sequence (G0S0F9 301-920 limits assumed): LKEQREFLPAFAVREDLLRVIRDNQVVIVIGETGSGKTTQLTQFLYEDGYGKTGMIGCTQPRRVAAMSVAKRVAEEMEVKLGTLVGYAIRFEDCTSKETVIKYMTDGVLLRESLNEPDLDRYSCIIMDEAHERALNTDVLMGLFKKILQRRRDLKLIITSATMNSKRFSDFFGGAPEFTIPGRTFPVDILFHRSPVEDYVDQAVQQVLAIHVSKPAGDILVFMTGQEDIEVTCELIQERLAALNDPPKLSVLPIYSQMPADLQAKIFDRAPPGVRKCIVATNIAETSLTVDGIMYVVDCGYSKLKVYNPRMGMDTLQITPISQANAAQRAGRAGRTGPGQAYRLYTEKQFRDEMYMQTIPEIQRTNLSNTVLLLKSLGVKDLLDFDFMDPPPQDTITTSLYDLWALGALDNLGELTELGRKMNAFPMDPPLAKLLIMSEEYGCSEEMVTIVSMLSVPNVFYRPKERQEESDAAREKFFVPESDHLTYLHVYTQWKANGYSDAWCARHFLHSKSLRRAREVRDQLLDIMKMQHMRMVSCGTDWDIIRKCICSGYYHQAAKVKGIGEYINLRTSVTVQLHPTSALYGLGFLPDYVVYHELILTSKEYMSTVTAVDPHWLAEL
Experiment: X-ray crystallography, […] A, co-crystallization
Format: binding
Settings: Mg2+ bound; MES pH 6.5; 293 K; tenfold molar excess of ADP; nucleotide site between RecA1 and RecA2

Q: How did the “X-ray crystallography, 1.9 A, co-crystallization” value turn out when `Nc1ncnc2c1ncn2[C@@H]1O[C@H](COP(=O)(O)OP(=O)(O)O)[C@@H](O)[C@H]1O` [ADP] was run?
A: The value was “The polder omit map clearly reveals the presence of ADP and a magnesium ion”.

Reference: PMC10416764, “Crystal structure of Prp16 in complex with ADP” (Acta Crystallographica. Section F, Structural Biology …, 2023)
